The results in this text go back to publication PMC11719397, “Monophthalates of betulinic acid and related pentacyclic triterpenes inhibit efficiently the SOS-mediated nucleotide exchange and impact PI3K/AKT signaling in oncogenic K-RAS4B proteins” (RSC Advances, 2025).

Data set [1] relates to ERK phosphorylation in SNU-1 cells (K-RAS4B^G12D). As to the kind of experiment: HTRF ERK phosphorylation assay in SNU-1 cells. It counts as cell-based. The following applies: Homo sapiens, SNU1, read-out: SNU-1 pERK inhibition IC50. Here is the method:
(§1) For selected betulinic acid derivatives quantitative ERK and AKT phosphorylation was measured in SNU-1 (K-RAS4B^G12D) and A375 cells (K-RAS4B^wt) to determine whether pentacyclic triterpenes act via the RAS-RAF-MEK-ERK or the RAS-PI3K-PDK1-AKT downstream cascade (Table 2). The betulinic acid derivatives tested, had no activity on the ERK pathway, but inhibited AKT phosphorylation with micromolar IC50 values in agreement with literature reports.[50,51] […] No activity was detected in A375 cells carrying a BRAF but no K-RAS mutation.
(§2) SNU-1 cells harbouring the K-RASG12D mutation (primary carcinoma of the stomach), were grown in RPMI medium with 10% FBS (fetal bovine serum) and 1% L-Gln. Cells were plated in white small volume cell culture 384 well microplates (Greiner BioOne GmbH) at a density of 50.000 cells per well/6 μL in RPMI medium with 1% L-glut (serum-free medium). The plated cells were placed in a high humidity incubator (37 °C, 5% CO2 and 90% humidity) to avoid evaporation of the small amount of medium for 3 hours before the compounds were added. With the Echo520 liquid handler the cells were treated with a 3-fold 8-point serial dilution of the compounds, with a top final concentration of 330 μM and a final DMSO concentration of 1%. After compound transfer, cells were incubated for 1 hour in the high humidity incubator before the cells were treated with 3 μL of 9 nM EGF diluted in serum-free medium (final EGF concentration in the well 3 nM) for 15 minutes. The lysis buffer from the Phospho-ERK 1/2 (Thr202/Tyr204)- and the Total ERK1/2 LANCE Ultra TR-FRET Cellular Detection Kit (PerkinElmer Inc.) was prepared to a 4-fold concentration in water. Then 3 μL of the lysis buffer were added to each well and the plates were shaken at 300 rpm for 30 minutes at room temperature. During this incubation the antibody detection mix was prepared according to the manufacturer's protocol. In the final step 3 μL of antibody detection mix were added to each well. The plates were sealed with an aluminium sticky foil and incubated over night at room temperature for 20 hours. The detection was performed with the EnVision2104 Multilabel Reader.

Data set [2] concerns the target K-RAS4B wild-type (Homo sapiens, UniProt P01116). The data set can be described thus: Nucleotide exchange assay (SOS1-mediated GDP/GTP exchange, GDP-Glo), K-RAS4B wild-type. The following applies: K-RAS4B GDP/GTP exchange; eight data points, at least three determinations; (*) single determination. It counts as biochemical.
In data set [3] the test system is AKT phosphorylation in SNU-1 cells (K-RAS4B^G12D). The data set can be described thus: HTRF AKT phosphorylation assay in SNU-1 cells. As to conditions: Homo sapiens, SNU1, read-out: SNU-1 pAKT inhibition IC50. It counts as cell-based. As for the experimental part:
as §1, §2
In general terms: In TR-FRET formats the signal depends on donor and acceptor labels being close together.

For data set [4], the system named is ERK phosphorylation in A375 cells (K-RAS4B^wt). As to the kind of experiment: HTRF ERK phosphorylation assay in A375 cells. It is filed as cell-based. The following applies: Homo sapiens, A-375; A375 cells (K-RAS4B^wt, BRAF mutation); two determinations; read-out: A375 pERK inhibition IC50. As for the experimental part:
as §1, §2

In data set [5] the test system is AKT phosphorylation in A375 cells (K-RAS4B^wt). As to the kind of experiment: HTRF AKT phosphorylation assay in A375 cells. It is filed as cell-based. As to conditions: Homo sapiens, A-375; A375 cells (K-RAS4B^wt, BRAF mutation); two determinations; read-out: A375 pAKT inhibition IC50. Here is the method:
as §1, §2

Data set [6] concerns the target K-RAS4B^G12D (Homo sapiens, UniProt P01116, G12D). The data set can be described thus: biochemical. As to conditions: for IC50: K-RAS4B GDP/GTP exchange, eight data points, at least three determinations.
For data set [7], the target named is K-RAS4B G12V (Homo sapiens, UniProt P01116, G12V). As to the kind of experiment: Nucleotide exchange assay (SOS1-mediated GDP/GTP exchange, GDP-Glo), K-RAS4B G12V. It is filed as biochemical. As to conditions: eight data points, at least three determinations, (*) single determination.
A short description of data set [8]: Solubility.
For data set [9], the system named is K-RAS4B wild-type. As to the kind of experiment: Nucleotide exchange assay (SOS1-mediated GDP/GTP exchange, GDP-Glo), K-RAS4B wild-type. It counts as biochemical. The following applies: GDP/GTP exchange IC50 of wild-type versus G12D/G12V mutants.

Converted amounts (≈) assume the structure as drawn.

Broadly, the IC50 is the concentration that gives 50% inhibition. By solubility is commonly meant the concentration that dissolves in the medium under given conditions. Low readings indicate little dissolved substance, high ones much dissolved substance.

Chain of K-RAS4B wild-type (Homo sapiens, UniProt P01116) (P01116 1-188 isoform P01116-2): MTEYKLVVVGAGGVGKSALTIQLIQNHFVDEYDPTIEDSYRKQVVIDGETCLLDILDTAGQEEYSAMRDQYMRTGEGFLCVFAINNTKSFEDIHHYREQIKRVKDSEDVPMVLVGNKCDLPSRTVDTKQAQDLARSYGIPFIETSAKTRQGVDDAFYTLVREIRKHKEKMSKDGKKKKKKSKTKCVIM
Chain of K-RAS4B^G12D (P01116 1-188 isoform P01116-2 G12D): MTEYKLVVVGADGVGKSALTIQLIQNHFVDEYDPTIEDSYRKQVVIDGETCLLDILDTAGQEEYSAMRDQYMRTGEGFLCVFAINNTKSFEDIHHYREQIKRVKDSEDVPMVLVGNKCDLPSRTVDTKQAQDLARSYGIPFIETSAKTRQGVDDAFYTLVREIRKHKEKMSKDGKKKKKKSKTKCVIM
Chain of K-RAS4B G12V (P01116 1-188 isoform P01116-2 G12V): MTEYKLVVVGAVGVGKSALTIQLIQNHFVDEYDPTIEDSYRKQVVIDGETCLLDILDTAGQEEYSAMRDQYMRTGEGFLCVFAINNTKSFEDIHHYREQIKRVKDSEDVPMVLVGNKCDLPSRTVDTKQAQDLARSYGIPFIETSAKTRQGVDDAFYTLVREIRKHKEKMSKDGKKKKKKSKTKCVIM

Turning to `C=C(C)[C@@H]1CC[C@]2(C(=O)O)CC[C@]3(C)[C@H](CC[C@@H]4[C@@]5(C)CC[C@H](OC(=O)c6nccnc6C(=O)O)C(C)(C)[C@@H]5CC[C@]43C)[C@@H]12` [Compound 23], the IC50 in [1] is more than 1000 µM; in data set [2], 23.3 ± 2.9 µM; in data set [3] it was 61.7 µM; in data set [4], more than 1000 µM; in [5], more than 1000 µM; in [6], 11.8 ± 1 µM. Half-maximal inhibition in data set [7] (IC50) was put at 9.61 ± 4.82 µM. In addition, the solubility in [8] worked out at 434 µM (≈ 263 µg/mL).
On to `C=C(C)[C@@H]1CC[C@]2(COC(=O)/C=C\C(=O)O)CC[C@]3(C)[C@H](CC[C@@H]4[C@@]5(C)CC[C@H](O)C(C)(C)[C@@H]5CC[C@]43C)[C@@H]12` [Compound 30], for which the “selectivity factor, mutant versus K-RAS4B^wt” value in [9] is given as 15–20. In addition, the figures for the IC50 in data set [2], in data set [6] and in data set [7] were 69.2 ± 6.8 µM, 6.8 ± 2.32 µM and 3.19 ± 0.19 µM, respectively.
On to `C=C(C)[C@@H]1CC[C@]2(C(=O)O)CC[C@]3(C)[C@H](CC[C@@H]4[C@@]5(C)CC[C@H](OC(=O)c6cc(OC)c(OC)cc6C(=O)O)C(C)(C)[C@@H]5CC[C@]43C)[C@@H]12` [Compound 26], for which the IC50 in data set [1] is more than 300 µM; in [2] it was more than 100 µM; in data set [3], 83.7 µM; in data set [4], more than 1000 µM; in [5], more than 1000 µM; in data set [6], 36.1 ± 14.7 µM. This molecule displayed an IC50 in [7] of 26.4 ± 3.9 µM. Moreover, the “inhibition of GDP/GTP exchange (in words)” value in [6] (K-RAS4B form mostly not given, inactive = IC50 > 100 μM (Fig. 3 legend)) is “only moderate activity”. In [8], this molecule had a solubility of 158 µM (≈ 105 µg/mL).
In the case of `C=C(C)[C@@H]1CC[C@]2(C(=O)O)CC[C@]3(C)[C@H](CC[C@@H]4[C@@]5(C)CC[C@H](OC(=O)c6cc(F)c(F)cc6C(=O)O)C(C)(C)[C@@H]5CC[C@]43C)[C@@H]12` [Compound 25], the IC50 in data set [1] was more than 300 µM; in data set [2], 39.1 ± 5.4 µM; in [3] it was 18.1 µM; in [4], more than 1000 µM; in data set [5] it was more than 1000 µM; in [6], 5 ± 0.91 µM. Also, the IC50 in [7] was 9.79 ± 3.41 µM. In addition, the “selectivity factor, mutant versus K-RAS4B^wt” value in [9] is recorded as 4–6. The solubility in data set [8] amounted to 240 µM (≈ 154 µg/mL).
With `C=C(C)[C@@H]1CC[C@]2(C(=O)O)CC[C@]3(C)[C@H](CC[C@@H]4[C@@]5(C)CC[C@H](OC(=O)c6c(F)ccc(F)c6C(=O)O)C(C)(C)[C@@H]5CC[C@]43C)[C@@H]12` [Compound 24], the IC50 was 134 µM in data set [1]; 15.7 ± 4.3 µM in data set [2]; 13 µM in data set [3]; more than 1000 µM in [4]; more than 1000 µM in data set [5]; 8.63 ± 3.72 µM in data set [6]. In addition, the IC50 in [7] was determined as 15.4 ± 2.9 µM. The molecule further came in with a solubility in [8] of 378 µM (≈ 242 µg/mL).
